Experimental data reported in patent US9938262B2, “Benzamides” (Merck Patent GmbH, priority 2011, dated 2018).

Target: T1, FSHR (Homo sapiens, UniProt P23945)
T1 construct: expressed in transfected cells; host or cells: CHO (Cho-FSHR-LUC-1-1-43)
Experiment: EC50 of cyclic AMP production in CHO FSHR cells + EC20 FSH (Assay A)
Format: cell-based
Conditions: Table 1; for EC50: CHO FSHR cells + EC20 FSH, read-out: Assay A EC50 of cyclic AMP production; for activation at 5 µM: 1 h, effect relative to maximum response of the FSH standard
Protocol: Example 10: EC50 of Cyclic AMP Production in CHO FSHR Cells+EC20 FSH (Assay A)
2500 Cho-FSHR-LUC-1-1-43 cells were plated per well in 5 μl of phenol red free DMEM/F12+1% FBS. Cells were plated in 384 well, solid white low volume plates (Greiner 784075) by Multidrop. Cells were assayed by adding 100 μl of 2×EC20 FSH/IBMX in DMEM/F12+0.1% BSA) by Multidrop to 2 μl of test compound stamped in 384 well plates (compounds are diluted 1:50). The final FSH concentration was […], and the final IBMX concentration was 200 μM. The compound plate map was as follows: Column 1: 2 μl of DMSO; Column 2: 2 μl of DMSO; Columns 3-12 and 13-24: 2 μl of test compound, diluted 1:4 in 100% DMSO, or 2 μl of FSH, diluted 1:4 in DMEM/F12+0.1% BSA. The starting concentration for FSH was 50 nM (final concentration was 0.5 nM). […] 5 μl of compound+EC20 FSH mixture were transferred to cell plates (1:2 dilution into 5 μl of cell media) The plates were incubated at 37° C. for 1 h. 10 μl of mixed HTRF (CisBio #62AM4PEC) reagents were added per well and incubated at room temperature for 1 h. The plates were read on Envision using the cAMP HTRF—low volume 384 well protocol. The readout was the calculated fluorescence ratio (665 nm/620 nm). Values given in percent (%) indicate the percental effect (response) at a certain concentration of agonist relative to the maximum response of the FSH standard.

T1 sequence (P23945 18-695): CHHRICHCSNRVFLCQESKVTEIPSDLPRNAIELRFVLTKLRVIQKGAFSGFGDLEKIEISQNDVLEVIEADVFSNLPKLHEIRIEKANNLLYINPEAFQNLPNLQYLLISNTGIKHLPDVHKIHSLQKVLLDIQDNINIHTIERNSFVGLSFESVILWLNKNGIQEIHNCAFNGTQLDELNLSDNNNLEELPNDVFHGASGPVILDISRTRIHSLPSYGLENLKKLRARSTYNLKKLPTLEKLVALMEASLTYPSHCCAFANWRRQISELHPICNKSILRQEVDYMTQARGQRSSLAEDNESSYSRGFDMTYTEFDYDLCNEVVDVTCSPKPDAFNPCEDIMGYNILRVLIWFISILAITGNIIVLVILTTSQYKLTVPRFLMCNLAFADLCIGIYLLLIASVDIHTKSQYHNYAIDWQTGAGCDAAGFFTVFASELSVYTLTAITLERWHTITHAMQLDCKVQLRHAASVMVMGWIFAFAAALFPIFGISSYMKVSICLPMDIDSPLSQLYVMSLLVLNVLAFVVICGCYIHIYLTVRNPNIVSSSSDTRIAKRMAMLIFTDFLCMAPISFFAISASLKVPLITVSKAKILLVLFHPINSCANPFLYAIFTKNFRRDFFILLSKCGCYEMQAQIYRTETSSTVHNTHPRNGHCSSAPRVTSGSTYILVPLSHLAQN
T1 sequence (P01215 25-116 partner): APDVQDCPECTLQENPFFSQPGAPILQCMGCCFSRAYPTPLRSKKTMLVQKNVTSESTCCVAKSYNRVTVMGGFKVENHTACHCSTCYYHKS
T1 sequence (P01225 19-129 partner): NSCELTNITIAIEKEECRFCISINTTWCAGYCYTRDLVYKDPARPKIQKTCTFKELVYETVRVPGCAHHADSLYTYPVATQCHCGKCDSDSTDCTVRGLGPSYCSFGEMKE

SMILES | EC50 | activation at 5 µM
Cc1ccccc1N1CCN(c2ccc(C(=O)NCCCn3cccc3)cc2NC(=O)c2ccco2)CC1 [Compound 148] | 100 to 1000 nM | –
Cc1ccccc1N1CCN(c2ccc(C(=O)NCCCn3ccc4ccccc43)cc2NC(=O)c2ccco2)CC1 [Compound 149] | – | 24%
Cc1ccccc1N1CCN(c2ccc(C(=O)NCC(=O)NC3CCCC3)cc2NC(=O)c2ccco2)CC1 [Compound 151] | 100 to 1000 nM | –
Cc1ccccc1N1CCN(c2ccc(C(=O)NCCCc3ccncc3)cc2NC(=O)c2ccco2)CC1 [Compound 153] | 100 to 1000 nM | –
Cc1ccccc1N1CCN(c2ccc(C(=O)NCC3(CN4CCCC4)CC3)cc2NC(=O)c2ccco2)CC1 [Compound 154] | 1000 to 10000 nM | –
Cc1ccccc1N1CCN(c2ccc(C(=O)NCCCN3C(=O)CN(C)C3=O)cc2NC(=O)c2ccco2)CC1 [Compound 156] | 100 to 1000 nM | –
Cc1ccccc1N1CCN(c2ccc(C(=O)NCCC3C[C@H]4CC[C@@H]3C4)cc2NC(=O)c2ccco2)CC1 (some centres unmarked) [Compound 157] | 100 to 1000 nM | –
Cc1ccccc1N1CCN(c2ccc(C(=O)NCCCN3CCCC3=O)cc2NC(=O)c2cccc(C(N)=O)c2)CC1 [Compound 163] | – | 8%
CC(=O)Nc1ccc(C(=O)Nc2cc(C(=O)NCCCN3CCCC3=O)ccc2N2CCN(c3ccccc3C)CC2)o1 [Compound 164] | 1000 to 10000 nM | –
Cc1ccc(C(=O)Nc2cc(C(=O)NCCCN3CCCC3=O)ccc2N2CCC(c3ccccc3C)CC2)o1 [Compound 165, 5-Methyl-furan-2-carboxylic acid [5-[3-(2-oxo-pyrrolidin-1-yl)-propylcarbamoyl]-2-(4-o-tolyl-piperidin-1-yl)-phenyl]-amide] | > 10000 nM | –
COc1ccccc1N1CCN(c2ccc(C(=O)NCCCN3CCCC3=O)cc2NC(=O)c2ccco2)CC1 [Compound 166] | – | 20%
Cc1ccc(C(=O)Nc2cc(C(=O)NCCCN3CCCC3=O)ccc2N2CCN(c3ccccc3)CC2)o1 [Compound 167, 5-Methyl-furan-2-carboxylic acid [5-[3-(2-oxo-pyrrolidin-1-yl)-propylcarbamoyl]-2-(4-phenyl-piperazin-1-yl)-phenyl]-amide] | 1000 to 10000 nM | –
Cc1ccc(C(=O)Nc2cc(C(=O)NCc3cccc(Br)c3)ccc2N2CCN(c3ccccc3C)CC2)o1 [Compound 170] | – | 32%
COc1ccc(CNC(=O)c2ccc(N3CCN(c4ccccc4C)CC3)c(NC(=O)c3ccc(C)o3)c2)cc1OC [Compound 171, 5-Methyl-furan-2-carboxylic acid [5-(3,4-dimethoxy-benzylcarbamoyl)-2-(4-o-tolyl-piperazin-1-yl)-phenyl]-amide] | 1000 to 10000 nM | –
COc1ccc(-c2c[nH]nc2CNC(=O)c2ccc(N3CCN(c4ccccc4C)CC3)c(NC(=O)c3ccc(C)o3)c2)cc1 [Compound 172, 5-Methyl-furan-2-carboxylic acid [5-{[4-(4-methoxy-phenyl)-1H-pyrazol-3-ylmethyl]-carbamoyl}-2-(4-o-tolyl-piperazin-1-yl)-phenyl]-amide] | 1000 to 10000 nM | –
COc1ccccc1N1CCN(c2ccc(C(=O)NCCCN3CCCC3=O)cc2NC(=O)c2ccc(C)o2)CC1 [Compound 173, 5-Methyl-furan-2-carboxylic acid {2-[4-(2-methoxy-phenyl)-piperazin-1-yl]-5-[3-(2-oxo-pyrrolidin-1-yl)-propylcarbamoyl]-phenyl}-amide] | 1000 to 10000 nM | –
Cc1ccc(C(=O)Nc2cc(C(=O)NCCN3CCS(=O)(=O)CC3)ccc2N2CCN(c3ccccc3C)CC2)o1 [Compound 174, 5-Methyl-furan-2-carboxylic acid [5-[2-(1,1-dioxo-1 lambda*6*-thiomorpholin-4-yl)ethylcarbamoyl]-2-(4-o-tolyl-piperazin-1-yl)-phenyl]-amide] | 1000 to 10000 nM | –
Cc1ccc(C(=O)Nc2cc(C(=O)NC3CCN(C(=O)OC(C)(C)C)CC3)ccc2N2CCN(c3ccccc3C)CC2)o1 [Compound 175, 4-[3-[(5-methyl-furan-2-carbonyl)-amino]-4-(4-o-tolyl-piperazin-1-yl)-benzoylamino]-piperidine-1-carboxylic acid tert-butyl ester] | 1000 to 10000 nM | –
Cc1ccccc1N1CCN(c2ccc(C(=O)NCCC(C)N3CCCC3)cc2NC(=O)c2ccco2)CC1 (centres unmarked) [Compound 181] | 1000 to 10000 nM | –
Cc1ccc(C(=O)Nc2cc(C(=O)NCCc3c[nH]cn3)ccc2N2CCN(c3ccccc3C)CC2)o1 [Compound 185, 5-Methyl-furan-2-carboxylic acid [5-[2-(1H-imidazol-4-yl)-ethylcarbamoyl]-2-(4-o-tolyl-piperazin-1-yl)-phenyl]-amide] | 1000 to 10000 nM | –
Cc1ccccc1N1CCN(c2ccc(C(=O)N[C@H]3O[C@@H](CO)[C@@H]4OC(C)(C)O[C@@H]43)cc2NC(=O)c2ccco2)CC1 [Compound 191] | 100 to 1000 nM | –
Cc1ccccc1N1CCN(c2ccc(C(=O)NCCCN)cc2NC(=O)c2ccco2)CC1 [Compound 192] | 100 to 1000 nM | –
Cc1ccc(C(=O)Nc2cc(C(=O)NC3CC3)ccc2N2CCN(c3ccccc3C)CC2)o1 [Compound 195, 5-Methyl-furan-2-carboxylic acid [5-cyclopropylcarbamoyl-2-(4-o-tolyl-piperazin-1-yl)-phenyl]amide] | 1000 to 10000 nM | –
Cc1ccc(C(=O)Nc2cc(C(=O)NCCCCCCNC(=O)OC(C)(C)C)ccc2N2CCN(c3ccccc3C)CC2)o1 [Compound 196] | – | 22%
Cc1ccc(C(=O)Nc2cc(C(=O)NCCCn3ccnc3)ccc2N2CCN(c3ccccc3C)CC2)o1 [Compound 210, 5-Methyl-furan-2-carboxylic acid [5-(3-imidazol-1-yl-propylcarbamoyl)-2-(4-o-tolyl-piperazin-1-yl)-phenyl]-amide] | 1000 to 10000 nM | –
C=CC(=O)NCCCNC(=O)c1ccc(N2CCN(c3ccccc3C)CC2)c(NC(=O)c2ccco2)c1 [Compound 212] | 100 to 1000 nM | –
Cc1ccc(C(=O)Nc2cc(C(=O)NCCN3CCN(C(=O)OC(C)(C)C)CC3)ccc2N2CCN(c3ccccc3C)CC2)o1 [Compound 214] | 1000 to 10000 nM | –

The remaining lines, values ahead:

EC50 | activation at 5 µM | SMILES
> 10000 nM | – | Cc1ccccc1N1CCN(c2ccc(C(=O)NCCCN3CCCC3=O)cc2NC(=O)c2cccc(O)c2)CC1 [Compound 146]
1000 to 10000 nM | – | Cc1ccccc1N1CCN(c2ccc(C(=O)NCCCN3CCCC3=O)cc2NC(=O)c2ncccc2F)CC1 [Compound 160]
100 to 1000 nM | – | Cc1ccccc1N1CCN(c2ccc(C(=O)NCCCN3CCCC3=O)cc2NC(=O)c2ccc(F)cc2F)CC1 [Compound 161]
100 to 1000 nM | – | Cc1ccc(C(=O)Nc2cc(C(=O)NCCCN3CCCC3=O)ccc2N2CCN(c3ccccc3C)CC2)s1 [Compound 162]
1000 to 10000 nM | – | Cc1ccccc1N1CCN(c2ccc(C(=O)NCCCN3CCCC3=O)cc2NC(=O)C(C)(C)C)CC1 [Compound 177, 3-(2,2-Dimethyl-propionylamino)-N-[3-(2-oxo-pyrrolidin-1-yl)-propyl]-4-(4-o-tolyl-piperazin-1-yl)-benzamide]
1000 to 10000 nM | – | Cc1ccccc1N1CCN(c2ccc(C(=O)NCCCN3CCCC3=O)cc2NC(=O)c2nc(Br)cs2)CC1 [Compound 178]
100 to 1000 nM | – | Cc1ccccc1N1CCN(c2ccc(C(=O)NCCCN3CCCC3=O)cc2NC(=O)c2ncsc2C)CC1 [Compound 179]
1000 to 10000 nM | – | Cc1cccc(C(=O)Nc2cc(C(=O)NCCCN3CCCC3=O)ccc2N2CCN(c3ccccc3C)CC2)n1 [Compound 186, 6-Methyl-pyridine-2-carboxylic acid [5-[3-(2-oxo-pyrrolidin-1-yl)-propylcarbamoyl]-2-(4-o-tolyl-piperazin-1-yl)-phenyl]-amide]
1000 to 10000 nM | – | Cc1ccc(C(=O)Nc2cc(C(=O)NCCCN3CCCC3=O)ccc2N2CCCN(c3ccccc3C)CC2)o1 [Compound 194, 5-Methyl-furan-2-carboxylic acid [5-[3-(2-oxo-pyrrolidin-1-yl)-propylcarbamoyl]-2-(4-o-tolyl-[1,4]diazepan-1-yl)-phenyl]-amide]
1000 to 10000 nM | – | Cc1ccccc1N1CCN(c2ccc(C(=O)NCCCN3CCCC3=O)cc2NC(=O)c2cnc(Cl)s2)CC1 [Compound 197]
100 to 1000 nM | – | Cc1ncc(C(=O)Nc2cc(C(=O)NCCCN3CCCC3=O)ccc2N2CCN(c3ccccc3C)CC2)s1 [Compound 198]
1000 to 10000 nM | – | CCc1ncc(C(=O)Nc2cc(C(=O)NCCCN3CCCC3=O)ccc2N2CCN(c3ccccc3C)CC2)s1 [Compound 200]
> 10000 nM | – | Cc1ccccc1N1CCN(c2ccc(C(=O)NCCCN3CCCC3=O)cc2NC(=O)c2sc(Cl)nc2C)CC1 [Compound 201]
1000 to 10000 nM | – | Cc1ccccc1N1CCN(c2ccc(C(=O)NCCCN3CCCC3=O)cc2NC(=O)c2nc3ccccc3s2)CC1 [Compound 202]
100 to 1000 nM | – | Cc1cnc(C(=O)Nc2cc(C(=O)NCCCN3CCCC3=O)ccc2N2CCN(c3ccccc3C)CC2)s1 [Compound 205]
1000 to 10000 nM | – | Cc1ccccc1N1CCN(c2ccc(C(=O)NCCCN3CCCC3=O)cc2NC(=O)c2coc(C(C)C)n2)CC1 [Compound 208]
> 10000 nM | – | Cc1ccccc1N1CCN(c2ccc(C(=O)NCCCN3CCCC3=O)cc2NC(=O)c2csc(C(C)C)c2)CC1 [Compound 213]
